We go through 20 compounds from US4469848A, “Deodorant product for surface treatment” (priority 1978, dated 1984).

One series addresses T1, lipoxidase (ECl.13.1.13) (Glycine max, UniProt P08170).
T1 sequence (P08170 1-839): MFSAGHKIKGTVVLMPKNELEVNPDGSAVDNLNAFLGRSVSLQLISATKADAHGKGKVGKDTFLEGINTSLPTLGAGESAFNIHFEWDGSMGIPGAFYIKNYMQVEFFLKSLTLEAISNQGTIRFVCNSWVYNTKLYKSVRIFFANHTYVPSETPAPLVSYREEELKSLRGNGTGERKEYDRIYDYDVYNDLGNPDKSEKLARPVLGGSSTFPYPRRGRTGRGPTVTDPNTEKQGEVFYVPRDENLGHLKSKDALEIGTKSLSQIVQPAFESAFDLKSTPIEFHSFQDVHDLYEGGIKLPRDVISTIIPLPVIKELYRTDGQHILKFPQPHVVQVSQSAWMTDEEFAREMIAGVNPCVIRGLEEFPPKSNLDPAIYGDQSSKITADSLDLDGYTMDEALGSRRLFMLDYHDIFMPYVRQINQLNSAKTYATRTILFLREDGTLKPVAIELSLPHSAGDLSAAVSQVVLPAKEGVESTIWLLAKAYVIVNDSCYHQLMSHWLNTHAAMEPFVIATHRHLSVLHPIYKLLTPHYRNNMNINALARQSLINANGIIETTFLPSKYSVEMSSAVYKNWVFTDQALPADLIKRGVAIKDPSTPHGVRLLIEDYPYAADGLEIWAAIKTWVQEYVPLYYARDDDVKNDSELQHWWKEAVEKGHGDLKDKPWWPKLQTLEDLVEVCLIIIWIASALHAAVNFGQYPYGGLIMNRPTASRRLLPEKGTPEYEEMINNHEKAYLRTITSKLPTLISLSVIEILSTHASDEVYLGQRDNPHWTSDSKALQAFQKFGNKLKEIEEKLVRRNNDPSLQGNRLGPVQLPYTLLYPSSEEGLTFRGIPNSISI
Description: Lipoxidase test: inhibition of lipoxidase-catalysed oxidation of linoleic acid to hydroperoxide (234 nm). Format: biochemical. The note with it: 0.5% by weight solution of material in ethanol as test substrate solvent; pH 9.0 borate buffer.
Consider Dimyrcetol, for which the “lipoxidase inhibiting capacity (LIC), % inhibition” value is on record as 16%.

On to Tetrahydromuguol, for which the “lipoxidase inhibiting capacity (LIC), % inhibition” value came out at 24%.

Regarding i-Nonyl acetate, the “lipoxidase inhibiting capacity (LIC), % inhibition” value was 50%.

Consider i-Nonyl formate, for which the “lipoxidase inhibiting capacity (LIC), % inhibition” value came to 19%.

System in the next series: not listed separately
Description: Morpholine test: depression of partial vapour pressure of morpholine relative to Raoult's Law (headspace GC). The note with it: material 1 g + morpholine 0.25 g, 37° C., 30 minutes.
With `CCCCCCCC1CCCC1=O` (stereo not drawn) [2-n-heptylcyclopentanone], the “Raoult variance ratio (RVR)” value stood at 1.05.

On to `CC1(C)CCCC2(C)C1CCC1(C)OCCC12` (stereo not drawn) [3a-Methyl-dodecahydro-6,6,9a-trimethylnaphtho(2,1-b)furan], for which the “Raoult variance ratio (RVR)” value is recorded as 1.30.

Take `O=C(OCc1ccccc1)c1ccccc1O` [Benzyl salicylate]: the “Raoult variance ratio (RVR)” value is given as 1.58.

Regarding `Cc1ccc(C(C)C)cc1O` [Carvacrol], the “Raoult variance ratio (RVR)” value is given as 1.43.

Consider `O=c1ccc2ccccc2o1` [Coumarin], for which the “Raoult variance ratio (RVR)” value amounted to 1.22.

As for `CCOC(=O)c1ccccc1C(=O)OCC` [Diethyl phthalate], the “Raoult variance ratio (RVR)” value is recorded as 1.20.

As to `CCOc1cc(C=O)ccc1O` [Ethyl vanillin], the “Raoult variance ratio (RVR)” value is 1.43.

As to `CCCCCCC(CCOC(C)=O)OC(C)=O` (stereo not drawn) [Nonanediol-1,3-diacetate], the “Raoult variance ratio (RVR)” value is listed as 1.17.

With `CCCCCC1CCC(=O)O1` (stereo not drawn) [Nonanolide-1:4], the “Raoult variance ratio (RVR)” value is listed as 0.87.

On to `OCCc1ccccc1` [Phenylether alcohol], for which the “Raoult variance ratio (RVR)” value turned out to be 1.24.

Consider `CC(C)CCOC(=O)c1ccccc1O` [iso-Amyl salicylate], for which the “Raoult variance ratio (RVR)” value is 1.24.

Consider `C/C=C\c1ccc(O)c(OC)c1` [iso-Eugenol], for which the “Raoult variance ratio (RVR)” value is listed as 1.48.

For `CC(=O)OC1CCCCC1C(C)(C)C` (stereo not drawn) [o-t-Butylcyclohexyl acetate], the “Raoult variance ratio (RVR)” value came out at 1.08.

With `CCC(C)(C)C1CCC(=O)CC1` [p-t-Amyl cyclohexanone], the “Raoult variance ratio (RVR)” value stood at 1.10.

Regarding `CC(=O)OC1CCC(C(C)(C)C)CC1` (stereo not drawn) [p-t-Butylcyclohexyl acetate], the “Raoult variance ratio (RVR)” value is 0.98.

Consider `CC(=O)c1ccc2ccccc2c1` [β-Methyl naphthyl ketone], for which the “Raoult variance ratio (RVR)” value worked out at 0.96.

For Dimyrcetol, the “Raoult variance ratio (RVR)” value worked out at 1.22.

Tetrahydromuguol: the “Raoult variance ratio (RVR)” value was found to be 1.23.

As for i-Nonyl acetate, the “Raoult variance ratio (RVR)” value came to 0.83.

For the compound i-Nonyl formate, the “Raoult variance ratio (RVR)” value was 1.49.
